4 molecules from ChEMBL document CHEMBL1158814, “Lehualides A-D, metabolites from a Hawaiian sponge of the genus Plakortis” (J Nat Prod, 2005) can be followed below.

A short description of data set [1]: Toxicity against brine shrimp. Format: organism-based. The settings on record: artemia, in vivo; read-out: LD50 (the source's name).
Data set [2] in a line: Cytotoxicity against human IGROV-ET cells. It counts as functional.
For data set [3], the system named is K562. Description: Cytotoxicity against human K562 cells. It counts as functional.

As usually defined, the GI50 is the concentration giving 50% growth inhibition. A lower GI50 goes with more potent growth inhibition.

In brackets after ≈: the same amount, converted by molar mass.

Take `COc1c(O)c(C)c(C/C=C(\C)CC/C=C(/C)C/C(C)=C/Cc2ccccc2)oc1=O` [LEHUALIDE A]: in data set [1], the LC50 is 50 µg/mL (≈ 118 µM).
`COc1oc(C/C=C(\C)CC/C=C(/C)C/C(C)=C/Cc2ccccc2)c(C)c(=O)c1OC` [LEHUALIDE B]: the LC50 in data set [1] turned out to be 15 µg/mL (≈ 34.4 µM). The molecule further displayed a concentration for 50% growth inhibition (GI50) in data set [2] of 830 nM.
Turning to `COc1oc(C/C=C(\C)CCCCCCCCCSC(C)=O)c(C)c(=O)c1OC` [LEHUALIDE C], in data set [1], the LC50 is 15 µg/mL (≈ 35.3 µM).
Consider `COc1oc(C/C=C(\C)CCCCCCCCCS)c(C)c(=O)c1OC` [LEHUALIDE D], for which the LC50 in data set [1] stood at 15 µg/mL (≈ 39.2 µM). Besides, the GI50 in data set [2] is 730 nM; in data set [3], 230 nM.
